Assay results: patent US20250188387A1, “LOW TOXICITY SURFACTANT BOOSTER COMPOSITIONS FOR FILTRATION MEMBRANE CLEANING APPLICATIONS” (ECOLAB USA INC., priority 2023, published 2025)

Experiments:
[1] = Redeposition of ghee onto coupons; settings: pH 11, 50° C., 1 g ghee in 600 g water, 10 minutes, FIG. 5
Method: Each coupon was new and conditioned by soaking in methyl alcohol for 30 seconds, then placed in 60° C. oven for 30 minutes. 600 g of 0 grain water was heated in a 1000 ml beaker to 50° C. The pH of the mixture was adjusted to 11 using NaOH. The chemistry was added to the solution and mixed for one minute. Additionally, 1 g of melted ghee was added to the solution and mixed for one minute. Three cleaned and weighed coupons were added using a coupon holder. After 10 minutes, the coupons were removed and dipped in DI water once. Coupons were left to dry overnight and weighed the following day. […] Therefore, after the soil is removed it is less likely to be redeposited onto the surface again.

[2] = Toxicity screening of surfactants by derived no-effect level (DNEL); settings: derived from toxicological studies supplied by the surfactant manufacturer, with assessment factors
Text: As referred to herein, a DNEL is substance specific and is commonly used as a health risk-based threshold in toxicological risk assessments. As a point of departure for the derivation of a DNEL varying toxicological studies are used, supplied by the surfactant manufacturer. […] Depending on evaluated endpoint and different parameters of these studies certain assessment factors are applied to derivate the DNEL. Used herein are scientifically justified and publicly recognized methods (e.g. by EFSA or ECETOC) for the determination of these assessment factors.
Surfactants were screened for lower toxicity levels.

| Substance | redeposition of butterfat onto coupons [1] | DNEL (derived no-effect level) [2] |
| --- | --- | --- |
| Alkyl polyglucosides [APGs] | helps prevent a larger amount of butterfat from being deposited | – |
| Nonylphenol ethoxylate [NPE] | – | less than 1 |
